Experimental data: patent publication US10172843B2, “Piperidine derivatives” (Hoffmann-La Roche Inc., priority 2014, dated 2019)

These molecules were tested against human Cat S (Homo sapiens (Human), UniProt P25774) (assay: Cathepsin enzyme inhibition assay (fluorogenic peptide substrate)). Conditions: human Cat S, enzyme 1 nM, substrate Z-Val-Val-Arg-AMC, pH 6.5; read-out: CatS IC50.
Type: biochemical
Description: Cathepsin Enzyme Inhibition Assay
Enzyme activity is measured by observing the increase in fluorescence intensity caused by cleavage of a peptide substrate containing a fluorophore whose emission is quenched in the intact peptide.
Assay buffer: 100 mM potassium phosphate pH 6.5, EDTA-Na 5 mM, Triton X-100 0.001%, DTT 5 mM.
Enzymes (all at 1 nM): human and mouse Cathepsin S, Cat K, Cat B, Cat L.
Substrate ([…], except for Cat K which uses Z-Leu-Arg-AMC (both from Bachem).
Excitation 360 nm, Emission 465 nm.
Enzyme is added to the substance dilutions in 96-well microtitre plates and the reaction is started with substrate. […] IC50 are calculated by standard methods.
Inhibition of human Cat S, mouse Cat S, human Cat K, mouse Cat K, human Cat B, mouse Cat B, human Cat L and mouse Cat L have been measured separately.

human Cat S, sequence (P25774 115-331): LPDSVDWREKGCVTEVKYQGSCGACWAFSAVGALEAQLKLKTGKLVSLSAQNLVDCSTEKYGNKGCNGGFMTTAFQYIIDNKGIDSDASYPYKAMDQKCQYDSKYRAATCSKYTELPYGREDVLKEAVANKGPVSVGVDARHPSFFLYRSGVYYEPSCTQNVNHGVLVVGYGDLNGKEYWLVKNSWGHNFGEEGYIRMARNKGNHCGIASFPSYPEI

Molecule	IC50 [µM]
5-(4-Bromophenyl)-3-[1-[[2-[4-(trifluoromethyl)phenyl]-1H-imidazol-5-yl]methyl]-4-piperidyl]-1H-imidazol-2-one [Example 15]	4.56
Cc1[nH]c(-c2ccc(C(F)(F)F)cc2)nc1CN1CCC(n2cnc3ccccc32)CC1 [Example 3, 1-{1-[5-Methyl-2-(4-trifluoromethyl-phenyl)-1H-imidazol-4-ylmethyl]-piperidin-4-yl}-1H-benzoimidazole]	0.45
Cc1nc(-c2ccc(C(F)(F)F)cc2)[nH]c1CN1CCC(N2CCCCC2=O)CC1 [Example 8, 1-[1-[[4-Methyl-2-[4-(trifluoromethyl)phenyl]-1H-imidazol-5-yl]methyl]-4-piperidyl]piperidin-2-one]	3.27
Cc1[nH]c(-c2ccc(C(F)(F)F)cc2)nc1CN1CCC(n2c(=O)[nH]c3ccc(N4CCCC4)cc32)CC1 [Example 9, 1-{1-[5-Methyl-2-(4-trifluoromethyl-phenyl)-1H-imidazol-4-ylmethyl]-piperidin-4-yl}-6-pyrrolidin-1-yl-1,3-dihydro-benzoimidazol-2-one]	0.19
Cc1[nH]c(-c2ccc(C(F)(F)F)cc2)nc1CN1CCC(n2c(=O)[nH]c3ccc(N4CCOCC4)cc32)CC1 [Example 10, 1-{1-[5-Methyl-2-(4-trifluoromethyl-phenyl)-1H-imidazol-4-ylmethyl]-piperidin-4-yl}-6-morpholin-4-yl-1,3-dihydro-benzoimidazol-2-one]	0.28
Cc1[nH]c(-c2ccc(C(F)(F)F)cc2)nc1CN1CCC(n2c(=O)[nH]c3ccc(N4CCN(C)CC4)cc32)CC1 [Example 11, 6-(4-Methyl-piperazin-1-yl)-1-{1-[5-methyl-2-(4-trifluoromethyl-phenyl)-1H-imidazol-4-ylmethyl]-piperidin-4-yl}-1,3-dihydro-benzoimidazol-2-one]	0.46
Cc1nc(-c2ccc(C(F)(F)F)cc2)[nH]c1CN1CCC(n2cc(-c3ccc(Br)cc3)[nH]c2=O)CC1 [Example 12, 5-(4-Bromophenyl)-3-[1-[[4-methyl-2-[4-(trifluoromethyl)phenyl]-1H-imidazol-5-yl]methyl]-4-piperidyl]-1H-imidazol-2-one]	0.59
Cc1nc(-c2ccc(C(F)(F)F)cc2)[nH]c1CN1CCC(n2cnc3c(=O)[nH]ccc32)CC1 [Example 13, 1-[1-[[4-Methyl-2-[4-(trifluoromethyl)phenyl]-1H-imidazol-5-yl]methyl]-4-piperidyl]-5H-imidazo[4,5-c]pyridin-4-one]	2.75
O=c1[nH]ccc2c1ncn2C1CCN(Cc2cnc(-c3ccc(C(F)(F)F)cc3)[nH]2)CC1 [Example 14, 1-[1-[[2-[4-(Trifluoromethyl)phenyl]-1H-imidazol-5-yl]methyl]-4-piperidyl]-5H-imidazo[4,5-c]pyridin-4-one]	4.32
O=c1[nH]c(-c2ccc(Br)cc2)nn1C1CCN(Cc2cnc(-c3ccc(C(F)(F)F)cc3)[nH]2)CC1 [Example 16, 5-(4-Bromophenyl)-2-[1-[[2-[4-(trifluoromethyl)phenyl]-1H-imidazol-5-yl]methyl]-4-piperidyl]-4H-1,2,4-triazol-3-one]	1.5
O=C1Nc2ccc(Br)cc2CN1C1CCN(Cc2cnc(-c3ccc(C(F)(F)F)cc3)[nH]2)CC1 [Example 17, 6-Bromo-3-[1-[[2-[4-(trifluoromethyl)phenyl]-1H-imidazol-5-yl]methyl]-4-piperidyl]-1,4-dihydroquinazolin-2-one]	0.195
Cc1[nH]c(-c2ccc(C(F)(F)F)cc2)nc1CN1CCC(n2c(=O)n(C)c3cc(Cl)ccc32)CC1 [Example 18, 5-Chloro-3-methyl-1-{1-[5-methyl-2-(4-trifluoromethyl-phenyl)-1H-imidazol-4-ylmethyl]-piperidin-4-yl}-1,3-dihydro-benzoimidazol-2-one]	0.195
Cc1[nH]c(-c2ccc(C(F)(F)F)cc2)nc1CN1CCC(N2Cc3ccc(F)cc3NC2=O)CC1 [Example 25, 7-Fluoro-3-{1-[5-methyl-2-(4-trifluoromethyl-phenyl)-1H-imidazol-4-ylmethyl]-piperidin-4-yl}-3,4-dihydro-1H-quinazolin-2-one]	0.18
CCn1c(=O)n(C2CCN(Cc3nc(-c4ccc(C(F)(F)F)cc4)[nH]c3C)CC2)c2ccc(Cl)cc21 [Example 26, 5-Chloro-3-ethyl-1-{1-[5-methyl-2-(4-trifluoromethyl-phenyl)-1H-imidazol-4-ylmethyl]-piperidin-4-yl}-1,3-dihydro-benzoimidazol-2-one]	0.15
COCCn1c(=O)n(C2CCN(Cc3nc(-c4ccc(C(F)(F)F)cc4)[nH]c3C)CC2)c2ccc(Cl)cc21 [Example 27, 5-Chloro-3-(2-methoxy-ethyl)-1-{1-[5-methyl-2-(4-trifluoromethyl-phenyl)-1H-imidazol-4-ylmethyl]-piperidin-4-yl}-1,3-dihydro-benzoimidazol-2-one]	0.22
Cc1[nH]c(-c2ccc(C(F)(F)F)cc2)nc1CN1CCC(N2Cc3ccccc3NC2=O)CC1 [Example 28, 3-{1-[5-Methyl-2-(4-trifluoromethyl-phenyl)-1H-imidazol-4-ylmethyl]-piperidin-4-yl}-3,4-dihydro-1H-quinazolin-2-one]	0.19
CC(=O)OCCn1c(=O)n(C2CCN(Cc3nc(-c4ccc(C(F)(F)F)cc4)[nH]c3C)CC2)c2ccc(Cl)cc21 [Example 29, Acetic acid 2-(6-chloro-3-{1-[5-methyl-2-(4-trifluoromethyl-phenyl)-1H-imidazol-4-ylmethyl]-piperidin-4-yl}-2-oxo-2,3-dihydro-benzoimidazol-1-yl)-ethyl ester]	0.28
Cc1[nH]c(-c2ccc(C(F)(F)F)cc2)nc1CN1CCC(n2c(=O)n(CCO)c3cc(Cl)ccc32)CC1 [Example 30, 5-Chloro-3-(2-hydroxy-ethyl)-1-{1-[5-methyl-2-(4-trifluoromethyl-phenyl)-1H-imidazol-4-ylmethyl]-piperidin-4-yl}-1,3-dihydro-benzoimidazol-2-one]	0.23
Cc1[nH]c(-c2ccc(C(F)(F)F)cc2)nc1CN1CCC(n2c(=O)n(CC(N)=O)c3cc(Cl)ccc32)CC1 [Example 31, 2-(6-Chloro-3-{1-[5-methyl-2-(4-trifluoromethyl-phenyl)-1H-imidazol-4-ylmethyl]-piperidin-4-yl}-2-oxo-2,3-dihydro-benzoimidazol-1-yl)-acetamide]	0.31
CNC(=O)Cn1c(=O)n(C2CCN(Cc3nc(-c4ccc(C(F)(F)F)cc4)[nH]c3C)CC2)c2ccc(Cl)cc21 [Example 32, 2-(6-Chloro-3-{1-[5-methyl-2-(4-trifluoromethyl-phenyl)-1H-imidazol-4-ylmethyl]-piperidin-4-yl}-2-oxo-2,3-dihydro-benzoimidazol-1-yl)-N-methyl-acetamide]	0.33
COC(=O)Cn1c(=O)n(C2CCN(Cc3nc(-c4ccc(C(F)(F)F)cc4)[nH]c3C)CC2)c2ccc(Cl)cc21 [Example 33, (6-Chloro-3-{1-[5-methyl-2-(4-trifluoromethyl-phenyl)-1H-imidazol-4-ylmethyl]-piperidin-4-yl}-2-oxo-2,3-dihydro-benzoimidazol-1-yl)-acetic acid methyl ester]	0.13
Cc1[nH]c(-c2ccc(C(F)(F)F)cc2)nc1CN1CCC(n2c(=O)n(CC(=O)O)c3cc(Cl)ccc32)CC1 [Example 34, (6-Chloro-3-{1-[5-methyl-2-(4-trifluoromethyl-phenyl)-1H-imidazol-4-ylmethyl]-piperidin-4-yl}-2-oxo-2,3-dihydro-benzoimidazol-1-yl)-acetic acid]	0.93
Cc1[nH]c(-c2ccc(C(F)(F)F)cc2)nc1CN1CCC(n2c(=O)n(CCS(C)(=O)=O)c3cc(Cl)ccc32)CC1 [Example 35, 5-Chloro-3-(2-methanesulfonyl-ethyl)-1-{1-[5-methyl-2-(4-trifluoromethyl-phenyl)-1H-imidazol-4-ylmethyl]-piperidin-4-yl}-1,3-dihydro-benzoimidazol-2-one]	0.257
Cc1[nH]c(-c2ccc(C(F)(F)F)cc2)nc1CN1CCC(c2c[nH]c3ccccc23)CC1 [Example 36, 3-{1-[5-Methyl-2-(4-trifluoromethyl-phenyl)-1H-imidazol-4-ylmethyl]-piperidin-4-yl}-1H-indole]	0.77
Cc1[nH]c(-c2ccc(C(F)(F)F)cc2)nc1CN1CCC(c2noc3cc(F)ccc23)CC1 [Example 37, 6-Fluoro-3-{1-[5-methyl-2-(4-trifluoromethyl-phenyl)-1H-imidazol-4-ylmethyl]-piperidin-4-yl}-benzo[d]isoxazole]	0.595
Cc1[nH]c(-c2ccc(C(F)(F)F)cc2)nc1CN1CCC(c2c[nH]c3ncccc23)CC1 [Example 38, 3-{1-[5-Methyl-2-(4-trifluoromethyl-phenyl)-1H-imidazol-4-ylmethyl]-piperidin-4-yl}-1H-pyrrolo[2,3-b]pyridine]	0.47

Same assay, conditions: read-out: CatS IC50

Molecule	IC50 [µM]
Cc1[nH]c(-c2ccc(C(F)(F)F)cc2)nc1CN1CCC(N2C(=O)Cc3ccccc32)CC1 [Example 2, 1-{1-[5-Methyl-2-(4-trifluoromethyl-phenyl)-1H-imidazol-4-ylmethyl]-piperidin-4-yl}-1,3-dihydro-indol-2-one]	0.78
Cc1[nH]c(-c2ccc(C(F)(F)F)cc2)nc1CN1CCC(N2C(=O)COc3ccccc32)CC1 [Example 19, 4-{1-[5-Methyl-2-(4-trifluoromethyl-phenyl)-1H-imidazol-4-ylmethyl]-piperidin-4-yl}-4H-benzo[1,4]oxazin-3-one]	0.47
